{
  "source": "paper PMC12534982",
  "about": "(Journal of Experimental & Clinical Cancer Research : CR, 2025)",
  "key": {"[1]": {"system": "healthy fibroblasts and keratinocytes", "test": "Cell viability / morphology in healthy cells", "assay_type": "cell-based, human", "conditions": "25 µM, 48 h", "excerpt": "Brightfield images were captured using a Leica DMi8 microscope with a 10X or 20X objective (HC PL FLUOTAR 10X/0.45 or 20X/0.75) equipped with a Leica DFC9000GT camera, and processed with a Leica Application Suite X (LAS X) Life Science Microscope Software (v3.5.5.19976, RRID:SCR_013673)."}, "colorectal cancer cells": {"system": "colorectal cancer cells", "test": "RT-qPCR", "assay_type": "cell-based, human", "conditions": "25 µM, 48 h", "procedure": "Cancer cells (0.8 × 10^6) were cultured in 60-mm Petri dishes and treated for 48 h with DMSO or NK-A 17E-233I (25 µM). The pellets were collected, and the total RNA was isolated using TRI Reagent Solution (#T9424; Sigma-Aldrich). The concentration and purity of RNA samples were assessed using a Nanodrop (Nanodrop ND-1000 spectrophotometer, Thermo Fisher) and stored at -80°C. Complementary DNA (cDNA) was generated using MultiScribe Reverse Transcriptase (#A25776; ThermoFisher Scientific), and the resulting cDNA was diluted and analyzed by qPCR using the StepOnePlus Real-Time PCR System (Applied Biosystems) with Power UP SYBR Green Master Mix (#A25741; ThermoFisher Scientific). β-actin was used as the endogenous control gene, and the fold change was calculated using the 2^−ΔΔCT method. Data processing was conducted using StepOnePlus Software for Windows, v2.3. All primer sequences were designed using the Primer 3 Plus software, validated by the Primer-BLAST tool, and submitted to Integrated DNA Technologies (IDT, Madrid, Spain). The primer sequences utilized in this study are listed below: […]"}},
  "data": [
    {"compound": "COc1cc(C)c(Oc2cc(C)cc(O)c2O)c(O)c1", "note": "[NK-A 17E-233I]", "values": [
      {"measurement": "cytotoxic effects in healthy cells", "setting": "[1]", "value": "no similar effects were observed"},
      {"measurement": "mRNA expression levels of POLD1 and POLD2", "setting": "colorectal cancer cells", "value": "reductions"}
    ]}
  ]
}
